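Compound exposure: 48 hours, 5 concentrations, 96-well plates. GI50: concentration for 50% inhibition of growth.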 Activity calls are given as the source filed them. No stated cut-off is given here; in the data, active = GI50 up to about 1.1 µM and inactive = higher. A value given as a limit tells only on which side of the number the result lay.

We go through eight compounds from ChEMBL document CHEMBL1201862, “PubChem BioAssay data set” (2004).

Holding throughout (assay): NCI anticancer screen, dose series, 48 h
Assay [1] deals with 786-0.
In assay [2] the test system is ACHN.
Assay [3] has as its system DLD-1.
Assay [4] deals with DMS-273.
Assay [5] deals with HCC 2998.
Assay [6] relates to HCT-116.
The test system of assay [7] is HOP-18.
In assay [8] the test system is HOP-62.
In assay [9] the test system is HT-29.
The subject of assay [10] is K562.
Assay [11] has as its system MOLT-4.
For assay [12], the system named is NCI-H226.
Assay [13] concerns NCI-H460.
In assay [14] the test system is OVCAR-8.
In assay [15] the test system is SK-MEL-5.
Assay [16] has as its system SK-OV-3.
Assay [17] has as its system SN12C.
The test system of assay [18] is SW-620.
In assay [19] the test system is SK-MEL-28.

Take `Fc1cccc(Cl)c1C1SCc2nc3ccccc3n21` (stereo not given): the GI50 in [1] was 45.7 µM (inactive); in assay [2] it was 39.2 µM (inactive); in assay [3], 28.8 µM (inactive); in assay [4], 22.6 µM (inactive); in assay [5] it was 31.7 µM (inactive); in assay [6] it was 22.4 µM (inactive). Moreover, the GI50 is 29.7 µM (inactive) in assay [7]; 33.2 µM (inactive) in [8]; 25.5 µM (inactive) in assay [9]; 25.8 µM (inactive) in assay [10]; 18.8 µM (inactive) in [11]; 36.6 µM (inactive) in [12]. The GI50 is 33 µM (inactive) in [13]; 38.1 µM (inactive) in assay [14]; 15.4 µM (inactive) in assay [15]; 22.9 µM (inactive) in assay [16]; 41.4 µM (inactive) in assay [17]; 37.2 µM (inactive) in assay [18].
With `COc1cc(OC)c2c(O)cc(CC(C)O)cc2c1` (stereo not given), the GI50 in assay [1], in assay [2], in assay [3], in assay [4], in assay [5] and in [6] was > 100 µM (inactive) each time. Also, the GI50 in assay [7] was > 100 µM (inactive); in [8], > 100 µM (inactive); in assay [9] it was 92.5 µM (inactive); in assay [10], > 100 µM (inactive); in assay [11], > 100 µM (inactive); in assay [13], > 100 µM (inactive). The GI50 in [14], in [19], in assay [15], in [16], in [17] and in [18] was > 100 µM (inactive) in each case.
For the compound `NC(=O)c1ncn(Cc2ccccc2)c1CNC(N)=S`, the GI50 in assay [1], in [2], in assay [3], in assay [4], in assay [5] and in [7] was > 100 µM (inactive) throughout. Moreover, the GI50 in assay [9], in assay [10], in assay [11], in [12], in [13] and in assay [14] was > 100 µM (inactive) throughout. In addition, the GI50 in [19], in [15], in [16], in assay [17] and in [18] was > 100 µM (inactive) throughout.
Consider `CN1Cc2ccccc2C2(COc3ccccc3C2=O)C1` (stereo not given), for which the GI50 in [2] is > 100 µM (inactive); in assay [3] it was 92.9 µM (inactive); in assay [4], > 100 µM (inactive); in assay [5], > 100 µM (inactive); in [6], > 100 µM (inactive); in assay [7], > 100 µM (inactive). In addition, the GI50 was > 100 µM (inactive) in [8]; 48 µM (inactive) in [9]; 75.2 µM (inactive) in [10]; 40.8 µM (inactive) in assay [11]; 35.7 µM (inactive) in [12]; > 100 µM (inactive) in assay [13]. Moreover, the GI50 was > 100 µM (inactive) in [14]; 56.2 µM (inactive) in assay [15]; > 100 µM (inactive) in assay [16]; > 100 µM (inactive) in assay [17]; > 100 µM (inactive) in assay [18].
For `COc1ccc(C(c2ccccc2)(c2ccc(OC)cc2)N2C(=O)NC3C(CCCCC(=O)NCCCCCCOP(OCCC#N)N(C(C)C)C(C)C)SCC32)cc1` (stereo not given), the GI50 in assay [1] was 18.1 µM (inactive); in assay [2], 16.3 µM (inactive); in assay [3], 14.8 µM (inactive); in assay [4], 12.7 µM (inactive); in assay [5], 16.6 µM (inactive); in [6], 12 µM (inactive). The GI50 was 11.8 µM (inactive) in assay [7]; 17.6 µM (inactive) in [8]; 14.6 µM (inactive) in assay [9]; 7.62 µM (inactive) in assay [10]; 7.57 µM (inactive) in [11]; 15 µM (inactive) in assay [12]. For the same compound, the GI50 in [13] is 16.8 µM (inactive); in [14] it was 29.2 µM (inactive); in assay [19], 15 µM (inactive); in [15], 15.3 µM (inactive); in assay [16], > 10 µM (inactive); in [18], 19.8 µM (inactive).
For `C[C@]12CCc3nonc3C1CC[C@@H]1C2CC[C@]2(C)C(=O)CCC12` (stereo not given in full), the GI50 was > 100 µM (inactive) in assay [1]; 74 µM (inactive) in [2]; 50 µM (inactive) in assay [3]; 20.7 µM (inactive) in assay [4]; 26.5 µM (inactive) in assay [5]; > 100 µM (inactive) in assay [7]. In addition, the GI50 in [8] was > 100 µM (inactive); in [9], 17.2 µM (inactive); in assay [10], 33.7 µM (inactive); in assay [11] it was 22.4 µM (inactive); in [12], 76.9 µM (inactive); in assay [13], > 100 µM (inactive). The GI50 was 31.2 µM (inactive) in assay [14]; > 10 µM (inactive) in assay [19]; 17.5 µM (inactive) in assay [15]; 33 µM (inactive) in assay [16]; 35.1 µM (inactive) in [17]; 40.1 µM (inactive) in [18].
Take `COc1cccc2c1C(=O)c1c(O)c3c(c(O)c1C2=O)C[C@](O)(C(=O)CO)CC3OC1CC(N)C(OC2CCCCO2)C(C)O1` (stereo not given in full): the GI50 in [3] was 0.675 µM (active); in [4] it was 0.019 µM (active); in assay [5] it was 0.621 µM (active); in assay [6], 0.0659 µM (active); in [7], 0.383 µM (active); in [8], 0.212 µM (active). For the same compound, the GI50 was 0.229 µM (active) in [9]; 0.188 µM (active) in assay [10]; < 0.01 µM (active) in [11]; 0.0805 µM (active) in assay [12]; < 0.01 µM (active) in assay [13]; 0.267 µM (active) in assay [14]. The GI50 is 1.4 µM (inactive) in assay [19]; 0.115 µM (active) in assay [15]; 0.531 µM (active) in assay [16]; 0.148 µM (active) in assay [17]; 0.0598 µM (active) in assay [18].
Turning to `COc1cccc2c1C(=O)c1c(O)c3c(c(O)c1C2=O)C[C@@](O)(C(=O)CO)CC3OC1CC(NCCCC(OC(C)=O)OC(C)=O)C(O)C(C)O1` (stereo not given in full), the GI50 in assay [1] is 0.00219 µM (active); in assay [2], 0.00243 µM (active); in assay [3] it was 0.0023 µM (active); in assay [4] it was < 0.0001 µM (active); in assay [5], 0.00228 µM (active); in assay [7] it was 0.00413 µM (active). The GI50 in assay [8] was 0.00165 µM (active); in assay [9] it was 0.000711 µM (active); in assay [10], 0.000512 µM (active); in assay [11], 0.00224 µM (active); in assay [12], 0.00153 µM (active); in [13], 0.000895 µM (active). Further, the GI50 in [14] is 0.00196 µM (active); in assay [19] it was 0.00259 µM (active); in assay [16] it was 0.00501 µM (active); in [17], 0.00152 µM (active); in [18], 0.00202 µM (active).
